The values below come from PMC4786259 (PLoS ONE, 2016).

One series has as its system male B6129 hybrid mice. Briefly: Clozapine drug discrimination (substitution). Format: in vivo. The method, then: Adult male B6129 hybrid mice (n = 12) were trained to respond under a FR10 schedule and were reinforced by presentation of sweetened milk as described previously. The drug and vehicle lever positions were counterbalanced between groups to control for olfactory cues. All injections were given subcutaneously with a pre-session injection time of 30 minutes. Training occurred on a double alternation injection schedule with two days of VEH followed by two days of CLZ and repeated (VEH, VEH, CLZ, CLZ, VEH, VEH etc.). In order for a mouse to pass a training day it had to meet three criteria: (1) complete the first fixed ratio (FR) on the condition-appropriate lever, (2) at least 80% of the total responses were made on the condition-appropriate lever, and (3) at least 10 responses per minute were made during the session. Drug testing was conducted approximately two times per week with at least two training days in between. To be eligible for testing, mice were required to pass both a drug and vehicle training day consecutively. […] Responses on both levers were reinforced.
A p<0.05 was considered significant.

The next series concerns the target T1, 5-HT6 (Homo sapiens, UniProt P50406).
T1 construct: expressed in transfected cells
Briefly: PDSP receptor functional assay. Format: cell-based.

The target in the next series is α1D (Homo sapiens, UniProt P25100). Briefly: PDSP radioligand competition binding. The settings on record: radioligand [^3H]Prazosin; read-out: In vitro Affinity.
A further series has as its system C57BL/6J mice. In words: Prepulse inhibition, PCP-disrupted. In kind it is in vivo.
For series [1] the following is noted: rats; cited from earlier work.
A further series deals with T2, 5-HT2B (Homo sapiens, UniProt P41595).
T2 construct: expressed in transfected cells
In words: PDSP radioligand competition binding. The settings on record: radioligand [^3H]LSD; read-out: In Vitro Affinity.

The target in a further series is T3, 5-HT2A (Homo sapiens, UniProt P28223).
T3 construct: expressed in transfected cells
Briefly: PDSP radioligand competition binding. The settings on record: radioligand [^3H]Ketanserin; read-out: In Vitro Affinity.

In another series the target is V1A (Homo sapiens, UniProt P37288). In words: PDSP radioligand competition binding. The settings on record: radioligand [^3H]Vasopressin; read-out: In vitro Affinity. For orientation: In a radioligand displacement assay an active substance lowers the binding of a labelled ligand.
A further series deals with hDAT and hVMAT2. Briefly: Whole cell 3H-dopamine uptake in HEK-DAT/VMAT2 cells. The settings on record: nuciferine pre-treatment.
For another series, the target named is α2C (Homo sapiens, UniProt P18825). Briefly: PDSP radioligand competition binding. The settings on record: radioligand [^3H]Rauwolscine; read-out: In vitro Affinity.

What is called ED50 is the dose that gives a 50% effect, or the effect in half of the subjects. By EC50 is commonly meant the concentration at which the effect is half-maximal.

T1 sequence (P50406 whole entry, species assumed): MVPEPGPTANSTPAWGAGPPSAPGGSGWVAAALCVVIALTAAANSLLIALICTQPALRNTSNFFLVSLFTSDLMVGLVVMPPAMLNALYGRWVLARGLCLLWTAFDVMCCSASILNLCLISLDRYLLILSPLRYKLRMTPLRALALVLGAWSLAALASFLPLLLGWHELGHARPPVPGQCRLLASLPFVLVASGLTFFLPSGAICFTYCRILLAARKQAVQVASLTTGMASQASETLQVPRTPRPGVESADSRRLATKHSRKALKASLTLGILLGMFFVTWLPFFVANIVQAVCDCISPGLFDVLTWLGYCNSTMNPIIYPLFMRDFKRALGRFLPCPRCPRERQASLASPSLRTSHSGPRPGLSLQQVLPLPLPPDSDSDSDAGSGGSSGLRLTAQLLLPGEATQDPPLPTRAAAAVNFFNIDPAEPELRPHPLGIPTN
V1A, sequence (P37288 whole entry): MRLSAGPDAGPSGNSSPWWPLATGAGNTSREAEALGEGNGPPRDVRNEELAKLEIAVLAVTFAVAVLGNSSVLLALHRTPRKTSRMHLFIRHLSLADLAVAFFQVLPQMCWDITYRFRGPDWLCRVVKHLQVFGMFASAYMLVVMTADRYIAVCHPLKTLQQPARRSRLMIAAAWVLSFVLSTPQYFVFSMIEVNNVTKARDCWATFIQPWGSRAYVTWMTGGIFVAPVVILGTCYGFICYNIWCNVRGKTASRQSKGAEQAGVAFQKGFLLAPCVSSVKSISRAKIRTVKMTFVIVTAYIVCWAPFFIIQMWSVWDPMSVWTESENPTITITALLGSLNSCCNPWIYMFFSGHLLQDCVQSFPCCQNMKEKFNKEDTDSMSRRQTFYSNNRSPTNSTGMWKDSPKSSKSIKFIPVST
T3 sequence (P28223 whole entry, looked up): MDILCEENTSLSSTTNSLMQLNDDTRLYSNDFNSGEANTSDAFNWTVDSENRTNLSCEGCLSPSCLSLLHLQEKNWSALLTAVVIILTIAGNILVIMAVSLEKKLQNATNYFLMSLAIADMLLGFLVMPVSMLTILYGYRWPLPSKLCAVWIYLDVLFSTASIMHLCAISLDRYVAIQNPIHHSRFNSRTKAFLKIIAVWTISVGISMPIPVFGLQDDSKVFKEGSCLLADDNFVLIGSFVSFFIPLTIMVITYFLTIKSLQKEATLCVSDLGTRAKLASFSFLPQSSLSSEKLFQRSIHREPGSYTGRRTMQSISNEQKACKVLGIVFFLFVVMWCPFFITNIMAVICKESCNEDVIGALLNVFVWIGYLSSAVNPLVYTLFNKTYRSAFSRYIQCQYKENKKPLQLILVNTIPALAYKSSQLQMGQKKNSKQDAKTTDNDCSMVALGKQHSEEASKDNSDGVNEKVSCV
α1D, sequence (P25100 whole entry): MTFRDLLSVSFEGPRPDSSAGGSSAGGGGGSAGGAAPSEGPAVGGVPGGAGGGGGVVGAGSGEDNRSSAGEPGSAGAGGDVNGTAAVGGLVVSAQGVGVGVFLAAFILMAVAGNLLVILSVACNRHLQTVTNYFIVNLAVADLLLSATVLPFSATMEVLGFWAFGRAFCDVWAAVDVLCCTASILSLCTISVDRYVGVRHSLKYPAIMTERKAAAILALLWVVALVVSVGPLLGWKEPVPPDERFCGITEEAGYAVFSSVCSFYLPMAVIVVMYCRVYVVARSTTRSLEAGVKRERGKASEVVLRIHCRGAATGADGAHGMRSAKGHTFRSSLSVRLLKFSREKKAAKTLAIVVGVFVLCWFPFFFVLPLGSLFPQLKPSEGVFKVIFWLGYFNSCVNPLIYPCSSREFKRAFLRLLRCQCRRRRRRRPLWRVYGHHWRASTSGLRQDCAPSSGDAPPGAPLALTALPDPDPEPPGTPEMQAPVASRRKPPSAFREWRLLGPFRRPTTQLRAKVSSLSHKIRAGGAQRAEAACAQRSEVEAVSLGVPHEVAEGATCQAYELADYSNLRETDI
T2 sequence (P41595 whole entry, species assumed): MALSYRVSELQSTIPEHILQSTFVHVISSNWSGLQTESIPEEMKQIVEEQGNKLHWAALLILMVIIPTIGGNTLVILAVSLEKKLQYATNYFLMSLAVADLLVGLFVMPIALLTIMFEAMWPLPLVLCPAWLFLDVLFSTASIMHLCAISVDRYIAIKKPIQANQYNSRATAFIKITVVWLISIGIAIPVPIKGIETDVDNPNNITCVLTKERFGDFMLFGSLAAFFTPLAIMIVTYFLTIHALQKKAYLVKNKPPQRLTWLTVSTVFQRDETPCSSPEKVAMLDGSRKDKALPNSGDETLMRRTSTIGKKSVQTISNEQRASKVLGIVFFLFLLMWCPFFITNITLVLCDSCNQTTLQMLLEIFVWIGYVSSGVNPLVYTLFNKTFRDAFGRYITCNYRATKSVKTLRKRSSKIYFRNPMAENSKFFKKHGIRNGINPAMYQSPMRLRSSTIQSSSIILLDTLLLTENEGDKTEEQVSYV
α2C, sequence (P18825 whole entry): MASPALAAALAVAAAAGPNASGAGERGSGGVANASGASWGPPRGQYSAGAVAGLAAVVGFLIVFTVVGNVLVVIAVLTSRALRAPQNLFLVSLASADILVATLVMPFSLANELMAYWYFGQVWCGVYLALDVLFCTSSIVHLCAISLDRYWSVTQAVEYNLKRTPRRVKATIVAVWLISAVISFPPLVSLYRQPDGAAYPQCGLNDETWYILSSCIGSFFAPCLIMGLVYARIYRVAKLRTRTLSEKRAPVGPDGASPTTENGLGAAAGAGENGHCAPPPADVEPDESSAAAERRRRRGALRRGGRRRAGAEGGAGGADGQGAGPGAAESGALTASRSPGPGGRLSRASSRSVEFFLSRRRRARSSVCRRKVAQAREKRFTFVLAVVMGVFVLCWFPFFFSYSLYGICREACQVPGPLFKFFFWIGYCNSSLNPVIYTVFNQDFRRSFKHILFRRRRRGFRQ
Method for hDAT and hVMAT2: Cell culture: HEK293 cells (ATCC) lines stably expressing hDAT or hDAT and hVMAT2 constructs were cultured at 37°C and 5% CO2 in DMEM with 10% FBS.
Whole cell ^3H-dopamine (DA) uptake: Cells were plated into 48-well plates one day before uptake was performed. […] After incubation, 25 μl uptake buffer containing ^3H-DA and DA was added for a final concentration of 20 nM ^3H-DA and 1 μM DA. Cells were incubated at 37°C for 20 minutes or for the time indicated. Nonspecific uptake was determined in the presence of 10 μM nomifensine. Uptake was terminated by aspirating uptake buffer and washing each well twice with 0.5 ml ice-cold uptake buffer. Cells were lysed in 0.1 N NaOH and transferred to vials containing 3 ml scintillation cocktail. Radioactivity was quantitated using a Beckman LS6500 counter. Data were analyzed in Graph Pad Prism 5.0.

Consider `COc1cc2c3c(c1OC)-c1ccccc1C[C@H]3N(C)CC2` [nuciferine], for which the drug lever responding with male B6129 hybrid mice (10.0 mg/kg s.c., animals trained on 1.25 mg/kg clozapine) was 80.63%. The ED50 in the series with male B6129 hybrid mice (Mus musculus, sc, 95% CI 3.09–9.48 mg/kg) came out at 5.42 mg/kg. Further, the “substitution for clozapine's discriminative cue” value with male B6129 hybrid mice (lower doses 0.1 mg/kg–3.0 mg/kg) is “failed to produce substitution”. Also, the midpoint of the response on 5-HT6, the EC50, lay at 700 nM. Further, the “Function Type” value at 5-HT6 was “Partial agonist”. The Emax on 5-HT6 (read-out: maximal effect) is 17.3%. Also, the Ki at α1D worked out at 818 nM; on 5-HT2B, 41 nM; on 5-HT2A it was 312 nM; at V1A it was 10000 nM; at α2C, 693 nM. Further, the “PCP-disrupted PPI” value in the series on C57BL/6J mice (5 mg/kg i.p. before 6 mg/kg PCP) is reported as “higher PPI than the PCP-vehicle groups”; in the series on C57BL/6J mice (10 mg/kg i.p. before 6 mg/kg PCP), “rescued the PCP-disrupted PPI”. Besides, the “crossing of the blood brain barrier” value in series [1] was “shown to cross the blood brain barrier”. The “effect on dopamine uptake in HEK-DAT/VMAT2 cells” value in the series with hDAT and hVMAT2 is “no effect”.
